{
  "source": "patent US20160318866A1",
  "about": "“SUBSTITUTED BIPIPERIDINYL DERIVATIVES” (Bayer Pharma Aktiengesellschaft, priority 2013, published 2016)",
  "key": {"[1]": {"molecular_target": "T1, human α2C receptor (Homo sapiens, UniProt P18825)", "T1 construct": "expressed in transfected cells; host or cells: CHO cells, also recombinantly expressing chimeric G protein Gαqi3 and mitochondrial obelin (mtOb)", "T1 sequence (P18825 1-462)": "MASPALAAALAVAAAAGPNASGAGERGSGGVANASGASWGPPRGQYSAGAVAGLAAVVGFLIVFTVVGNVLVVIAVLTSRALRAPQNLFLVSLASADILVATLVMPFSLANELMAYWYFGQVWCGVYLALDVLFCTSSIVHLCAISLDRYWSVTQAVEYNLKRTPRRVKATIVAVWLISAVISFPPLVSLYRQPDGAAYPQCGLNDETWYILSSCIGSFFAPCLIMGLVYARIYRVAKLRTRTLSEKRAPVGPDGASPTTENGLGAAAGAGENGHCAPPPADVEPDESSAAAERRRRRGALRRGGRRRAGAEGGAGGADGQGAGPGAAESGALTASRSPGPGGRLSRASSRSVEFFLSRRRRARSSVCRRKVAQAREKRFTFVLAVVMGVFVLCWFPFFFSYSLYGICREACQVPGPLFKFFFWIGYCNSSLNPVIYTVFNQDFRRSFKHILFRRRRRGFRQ", "experiment": "Antagonism against the adrenoreceptor α2C (luminescence, recombinant CHO cell line)", "type": "cell-based", "conditions": "antagonism against adrenoreceptor α2C; noradrenaline 20 nM; tested up to 10 μM; read-out: IC50", "summary_of_the_method": "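CHO cells expressing human α2C receptor with chimeric Gαqi3 and mitochondrial obelin, loaded with 2.5 μg/ml coelenterazine for one day at 30 °C.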"}, "[2]": {"test_system": "diabetic (ZDFfa/fa) and healthy rats (Wistar)", "experiment": "Assay of perfusion-enhancing substances (microcirculation), laser doppler at the paw", "type": "in vivo, rat", "conditions": "single oral dose", "description": "In diabetic (ZDFfa/fa) and healthy rats (Wistar), a laser doppler probe was fastened under anaesthesia conditions (isoflurane anaesthesia) at the sole of the paw for measuring cutaneous microcirculation. The test animals were once treated orally with the test substances. During the experiment, microperfusion and temperature of the lower extremities were documented continuously. Here, a temperature-sensitive laser doppler probe (Periflux, O2C) was fastened with adhesive to the paws of the animals, allowing the measurement of microperfusion and skin temperature. The microcirculation measurement values were measured on both paws 30 min after oral administration of the test substance. […] Also stated is the MED for the significant increase of skin temperature (ttest)."}, "[3]": {"test_system": "adult female Wistar rats", "experiment": "Radiotelemetric measurement of blood pressure and heart rate of conscious rats", "type": "in vivo, rat", "conditions": "10 mg/kg, oral, telemetry over 24 hours", "description": "A commercially available telemetry system from Data Sciences International DSI, USA, was employed for the measurements on conscious rats described below. The system consists of 3 main components: (1) implantable transmitters (Physiotel® telemetry transmitter), (2) receivers (Physiotel® receiver), which are linked via a multiplexer (DSI Data Exchange Matrix) to a (3) data acquisition computer. The telemetry system makes it possible to continuously record blood pressure, heart rate and body motion of conscious animals in their usual habitat.\nThe studies were conducted on adult female Wistar rats with a body weight of >200 g. After transmitter implantation, the experimental animals were housed singly in type III Makrolon® cages. They had free access to standard feed and water. The day/night rhythm in the test laboratory was set by changing the illumination of the room.\nThe telemetry transmitters used (PA-C40, DSI) were surgically implanted under aseptic conditions in the experimental animals at least 14 days before the first experimental use.\nFor the implantation, the fasted animals were anaesthetized with isoflurane (IsoFlo®, Abbott, initiation 5%, maintenance 2%) and shaved and disinfected over a large area of their abdomens. […]\nEach of the instrumented rats living in the system was assigned a separate receiving antenna (RPC-1 Receiver, DSI). […] The signals emitted were detected online by a data acquisition system (Dataquest™ A.R.T. for Windows, DSI) and processed accordingly.\nIn the standard procedure, the following were measured for 10-second periods in each case: (1) systolic blood pressure (SBP), (2) diastolic blood pressure (DBP), (3) mean arterial pressure (MAP), (4) heart rate (HR) and (5) activity (ACT). These parameters were measured over 24 hours after administration.\nThe acquisition of measurements was repeated under computer control at 5-minute intervals. The source data obtained as absolute values were corrected in the diagram with the currently measured barometric pressure (Ambient Pressure Reference Monitor, APR-1, DSI). […]"}},
  "note": "pIC50: −log10 of the molar value.",
  "data": [
    {"molecule": "CCOCC1CCCN(C2CCN(C(=O)c3ccc(C(C)(C)O)cc3)CC2)C1", "note": "(stereo not shown) [Example 120, [3-(Ethoxymethyl)-1,4′-bipiperidin-1′-yl][4-(2-hydroxypropan-2-yl)phenyl]methanone]", "values": [
      {"measurement": "pIC50", "setting": "[1]", "value": 8.00}
    ]},
    {"molecule": "COC(C)(C)c1ccc(C(=O)N2CCC(N3CCCC(OCC4CC4)C3)CC2)cc1", "note": "(stereo not shown) [Example 122, [3-(Cyclopropylmethoxy)-1,4′-bipiperidin-1′-yl][4-(2-methoxypropan-2-yl)phenyl]methanone]", "values": [
      {"measurement": "pIC50", "setting": "[1]", "value": 8.05}
    ]},
    {"molecule": "O=C(c1ccc(C2(O)COC2)cc1)N1CCC(N2CCCC(OCC3CC3)C2)CC1", "note": "(stereo not shown) [Example 124, [3-(Cyclopropylmethoxy)-1,4′-bipiperidin-1′-yl][4-(3-hydroxyoxetan-3-yl)phenyl]methanone]", "values": [
      {"measurement": "pIC50", "setting": "[1]", "value": 7.41}
    ]},
    {"molecule": "CC(C)(O)c1ccc(C(=O)N2CCC(N3CCCC(C4CC4)C3)CC2)cc1", "note": "(stereo not shown) [Example 126, (3-Cyclopropyl-1,4′-bipiperidin-1′-yl)[4-(2-hydroxypropan-2-yl)phenyl]methanone]", "values": [
      {"measurement": "pIC50", "setting": "[1]", "value": 7.92}
    ]},
    {"molecule": "CC(C)(O)c1ccc(C(=O)N2CCC(N3CCCC(OCCOC(F)(F)F)C3)CC2)cc1", "note": "(stereo not shown) [Example 127, [4-(2-Hydroxypropan-2-yl)phenyl]{3-[2-(trifluoromethoxy)ethoxy]-1,4′-bipiperidin-1′-yl}methanone]", "values": [
      {"measurement": "pIC50", "setting": "[1]", "value": 6.81}
    ]},
    {"molecule": "CC(C)(O)c1ccc(C(=O)N2CCC(N3CCCC(OCC4CC4)C3)CC2)cc1", "note": "(stereo not shown) [Example 128, [3-(Cyclopropylmethoxy)-1,4′-bipiperidin-1′-yl][4-(2-hydroxypropan-2-yl)phenyl]methanone]", "values": [
      {"measurement": "pIC50", "setting": "[1]", "value": 7.44}
    ]},
    {"molecule": "COC[C@@]1(C)CCCN2CCc3c(oc4ccccc34)[C@@H]21", "note": "[ORM-12741, reference compound]", "values": [
      {"measurement": "factor by which microcirculation is improved at this dose compared to placebo", "setting": "[2]; at the MED, 30 min after administration", "value": 1.9, "unit": "x"},
      {"measurement": "MED [mg/kg] skin temperature", "setting": "[2]; minimum effective dose for significant increase of skin temperature (ttest)", "value": 0.01, "unit": "mg/kg"},
      {"measurement": "MED [mg/kg] microcirculation", "setting": "[2]; minimum effective dose for significantly improved microcirculation vs placebo, 30 min after administration", "value": 0.1, "unit": "mg/kg"},
      {"measurement": "blood pressure", "setting": "[3]", "value": "additional reduction in blood pressure"}
    ]}
  ]
}
